SMILES strings stand for the structures. Read-outs that look alike come from different tables or passages of the source.

One data set concerns HTT mRNA. Put plainly: RT-qPCR splicing assay, HTT mRNA canonical (CJ) and alternative (AJ) junction. In kind it is cell-based, human. Particulars: Homo sapiens; for AC50: HTT alternative junction mRNA, read-out: HTT AJ (increase in AJ mRNA, AC50). The essentials: (§1)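 Splice switching quantified in compound-treated A673/K562 cells after 24 h exposure (top dose 10 uM, 3-fold steps, ≤0.25% DMSO), using CJ and AJ qPCR assays run at least in duplicate. RQ derived by 2^(−ΔΔCt), then percentage response.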
Background: In qPCR the cycle at which signal appears reflects the starting amount.

The subject of the next data set is MYB mRNA. The data set can be described thus: RT-qPCR splicing assay, MYB mRNA canonical (CJ) and alternative (AJ) junction. Particulars: Homo sapiens; for AC50: MYB alternative junction mRNA, read-out: MYB AJ (increase in AJ mRNA, AC50). Format: cell-based, human. The essentials: as §1
The subject of a further data set is SMN2 mRNA. Put plainly: RT-qPCR splicing assay, SMN2 mRNA. In kind it is cell-based, human. Particulars: Homo sapiens, canonical junction qPCR panel, Table 4; read-out: SMN2 IC50 (decrease in CJ mRNA levels). The essentials: as §1
The test system of a further data set is MYB. Put plainly: HiBiT protein abundance assay, MYB (K562 HiBiT knock-in). The conditions noted are these: HiBiT knock-in K562 cells, 24 hours, top dose 10 μM. In kind it is cell-based, human. The essentials:
(§2)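 Luminescence readout: Nano-Glo HiBiT lytic detection after 24 h compound exposure of K562 HiBiT knock-in cells, 10000 cells/well. Dosing 10-pt, 3-fold, top 10 μM final. % response vs untreated parental K562 and DMSO controls; 4PL fit, IC50 = concentration giving 50% protein abundance.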
Background: HiBiT is a short tag that completes a luciferase, so light tracks the accessible tagged protein.

A further data set relates to HTT. Put plainly: HiBiT protein abundance assay, HTT (K562 HiBiT knock-in). In kind it is cell-based, human. The conditions noted are these: HiBiT knock-in K562 cells, 24 hours, top dose 10 μM. The essentials:
as §2

For the next data set, the system named is Target C. Put plainly: HiBiT protein abundance assay, Target C (K562 HiBiT knock-in). Format: cell-based, human. The conditions noted are these: HiBiT knock-in K562 cells, 24 hours, top dose 10 μM. The essentials: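 K562 HiBiT knock-in cells (10000/well) were treated 24 h at 37° C with a 10-point 3-fold dilution series (top 10 μM final, ≤0.25% DMSO). HiBiT luminescence was read after lytic LgBiT detection. Percent response used unmodified K562 and DMSO-treated knock-in controls, and IC50 came from a four-parameter fit at 50% of untreated.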

A further data set concerns K562 cells. Put plainly: Cell Titer Glo 2.0 cell viability (toxicity) assay, K562. Particulars: 500 cells/well, 72 hours. For orientation: In ATP-based viability assays light output follows the ATP content of the culture.
The mark [1] stands for this setting: HTT canonical junction mRNA, RT-qPCR, read-out: HTT CJ (decrease in CJ mRNA levels, IC50).
The mark [2] stands for this setting: canonical junction qPCR panel, Table 4, read-out: HTT IC50 (decrease in CJ mRNA levels).
[3] abbreviates: MYB canonical junction mRNA, RT-qPCR, read-out: MYB CJ (decrease in CJ mRNA levels, IC50).
The mark [4] stands for this setting: canonical junction qPCR panel, Table 4, read-out: MYB IC50 (decrease in CJ mRNA levels).

With `Cn1cc2nc(-c3ccc4nc(C5CCNCC5)ccc4n3)ccc2n1` [Compound 199], the AC50 with HTT mRNA (RT-qPCR) and in the data set with MYB mRNA (RT-qPCR) was 100 to 1000 nM each time. Also, the IC50 with HTT mRNA (setting [1]), in the data set on HTT mRNA (setting [2]), with MYB mRNA (setting [3]), with MYB mRNA (setting [4]), in the data set with SMN2 mRNA and in the data set with MYB was 100 to 1000 nM each time. The 50% inhibitory concentration (IC50) in the data set on HTT and in the data set on Target C was 100 to 1000 nM each time. For the same compound, the “Effect of Exemplary Compounds on Cell Viability, K562” value (shortened to “Effect of Exemplary Compounds”) with K562 cells was “B (B represents 100-1000 nM)”.
Turning to `Cn1cc2cc(-c3ccc4nc(C5CCNCC5)ccc4n3)ncc2n1` [Compound 200], the AC50 in the data set with HTT mRNA (RT-qPCR) and in the data set on MYB mRNA (RT-qPCR) was 1000 to 10000 nM in each case. The half-inhibitory concentration (IC50) in the data set on HTT mRNA (setting [1]), in the data set on HTT mRNA (setting [2]), with MYB mRNA (setting [3]), in the data set with MYB mRNA (setting [4]), in the data set with SMN2 mRNA and with MYB was 1000 to 10000 nM in each case. The IC50 in the data set with HTT and with Target C was 1000 to 10000 nM throughout. In addition, the “Effect of Exemplary Compounds” value with K562 cells is reported as “C (C represents 1000-9999 nM)”.
For `Cc1cn2cc(-c3ccc4nc(N5CCC(NC(C)(C)C)C5)ccc4n3)cc(C)c2n1` (centres unmarked) [Compound 201], the AC50 with HTT mRNA (RT-qPCR) and in the data set on MYB mRNA (RT-qPCR) was 100 to 1000 nM each time. Further, the concentration for half-maximal inhibition (IC50) (commonly the concentration that gives 50% inhibition) with HTT mRNA (setting [1]) was 100 to 1000 nM; in the data set with HTT mRNA (setting [2]), 100 to 1000 nM; in the data set on MYB mRNA (setting [3]), 100 to 1000 nM; with MYB mRNA (setting [4]), 100 to 1000 nM; in the data set on SMN2 mRNA, < 100 nM; in the data set with MYB, 100 to 1000 nM. Moreover, the IC50 with HTT was < 100 nM; in the data set on Target C it was 100 to 1000 nM. Also, in the data set with K562 cells, the “Effect of Exemplary Compounds” value is “B (B represents 100-1000 nM)”.
With `Cn1cc2cc(-c3ccc4nc(N5CCC(NC(C)(C)C)C5)ccc4n3)c(O)c(F)c2n1` (centres unmarked) [Compound 202], the half-maximal activity concentration (AC50) with HTT mRNA (RT-qPCR) and in the data set with MYB mRNA (RT-qPCR) was < 100 nM in each case. The IC50 in the data set on HTT mRNA (setting [1]), in the data set with HTT mRNA (setting [2]), with MYB mRNA (setting [3]), with MYB mRNA (setting [4]), with SMN2 mRNA and with MYB was < 100 nM throughout. Moreover, the IC50 in the data set with HTT and in the data set on Target C was < 100 nM throughout. Moreover, the “Effect of Exemplary Compounds” value in the data set with K562 cells was “A (A represents <100 nM)”.
As to `Cc1cn2nc(-c3ccc4nc(N5CCC(NC(C)(C)C)C5)ccc4n3)c(O)c2c(C)n1` (centres unmarked) [Compound 203], the AC50 (in general, the midpoint of the concentration-response curve, whichever way the signal moves) was < 100 nM in the data set with HTT mRNA (RT-qPCR) and 100 to 1000 nM in the data set on MYB mRNA (RT-qPCR). The IC50 is < 100 nM in the data set with HTT mRNA (setting [1]); < 100 nM in the data set with HTT mRNA (setting [2]); 100 to 1000 nM in the data set with MYB mRNA (setting [3]); 100 to 1000 nM with MYB mRNA (setting [4]); < 100 nM in the data set with SMN2 mRNA; < 100 nM in the data set on MYB. Moreover, the IC50 with HTT and in the data set with Target C was < 100 nM throughout. In addition, in the data set with K562 cells, the “Effect of Exemplary Compounds” value is listed as “B (B represents 100-1000 nM)”.
Regarding `Cn1cc2cc(-c3ccc4nc(C5CCNCC5)ccc4n3)c(C#N)cc2n1` [Compound 204], the AC50 in the data set with HTT mRNA (RT-qPCR) and in the data set on MYB mRNA (RT-qPCR) was 1000 to 10000 nM throughout. Besides, the half-inhibitory concentration (IC50) with HTT mRNA (setting [1]) was 1000 to 10000 nM; with HTT mRNA (setting [2]) it was 1000 to 10000 nM; in the data set on MYB mRNA (setting [3]) it was 1000 to 10000 nM; in the data set with MYB mRNA (setting [4]), 1000 to 10000 nM; in the data set with SMN2 mRNA it was 100 to 1000 nM; in the data set on MYB, 1000 to 10000 nM. For the same compound, the IC50 in the data set on HTT and in the data set with Target C was 1000 to 10000 nM each time. Further, in the data set on K562 cells, the “Effect of Exemplary Compounds” value is recorded as “D (D represents greater than 10 μM in K562 cells)”.
For `Cn1cc2nc(-c3ccc4nc(C5CCNCC5)ccc4n3)c(F)cc2n1` [Compound 205], the concentration at half-maximal activity (AC50) in the data set on HTT mRNA (RT-qPCR) and in the data set with MYB mRNA (RT-qPCR) was 1000 to 10000 nM in each case. Besides, the IC50 in the data set with HTT mRNA (setting [1]), in the data set with HTT mRNA (setting [2]), in the data set with MYB mRNA (setting [3]), in the data set with MYB mRNA (setting [4]), in the data set on SMN2 mRNA and with MYB was 1000 to 10000 nM in each case. The IC50 in the data set on HTT and in the data set on Target C was 1000 to 10000 nM throughout. Moreover, in the data set with K562 cells, the “Effect of Exemplary Compounds” value was “C (C represents 1000-9999 nM)”.
